Patent US20230338316A1, “ABBAPOLINS AS INHIBITORS AND DEGRADERS OF POLO-LIKE KINASES” (UNIVERSITY OF SOUTH CAROLINA, priority 2022, published 2023)
Values belong to the molecule of their own block, whether it stands above or below them.

Key:
MOLT-4 = assay: Single dose cell viability assay, MOLT-4; type: cell-based; settings: MOLT-4 (Leukemia), single dose 25 μM
Protocol: (§1) Lead abbapolin compounds were tested in multiple cancer cell lines, including non-small cell lung cancer (NSCLC) cells, melanoma cells, colon cancer cells, central nervous system (CNS) cancer cells, prostate cancer cells, renal cancer cells, and breast cancer cells. Each of these cancer cells lines were sensitive to the lead abbapolin compounds in a cell viability assay, including 6184 (Table 3), 6277 (Table 4), 6279 (Table 5), 6355 (Table 6), 6359 (Table 7), 6369 (Table 8), and 6421 (Table 9).

RPMI-8226 = assay: Single dose cell viability assay, RPMI-8226; type: cell-based; settings: RPMI-8226 (Leukemia), single dose 25 μM
Protocol: as §1

CCRF-CEM = assay: Single dose cell viability assay, CCRF-CEM; type: cell-based; settings: CCRF-CEM (Leukemia), single dose 25 μM
Protocol: as §1

K-562 = assay: Single dose cell viability assay, K-562; type: cell-based; settings: K-562 (Leukemia), single dose 25 μM
Protocol: as §1

NCI-H522 = assay: Single dose cell viability assay, NCI-H522; type: cell-based; settings: NCI-H522 (NSCLC), single dose 25 μM
Protocol: as §1

SK-MEL-2 = assay: Single dose cell viability assay, SK-MEL-2; type: cell-based; settings: SK-MEL-2 (Melanoma), single dose 25 μM
Protocol: as §1

MDA-MB-468 = assay: Single dose cell viability assay, MDA-MB-468; type: cell-based; settings: MDA-MB-468 (Breast), single dose 25 μM
Protocol: as §1

SK-MEL-5 = assay: Single dose cell viability assay, SK-MEL-5; type: cell-based; settings: SK-MEL-5 (Melanoma), single dose 25 μM
Protocol: as §1

UACC-62 = assay: Single dose cell viability assay, UACC-62; type: cell-based; settings: UACC-62 (Melanoma), single dose 25 μM
Protocol: as §1

UO-31 = assay: Single dose cell viability assay, UO-31; type: cell-based; settings: UO-31 (Renal), single dose 25 μM
Protocol: as §1

HL-60(TB) = assay: Single dose cell viability assay, HL-60(TB); type: cell-based; settings: HL-60(TB) (Leukemia), single dose 25 μM
Protocol: as §1

T-47D = assay: Single dose cell viability assay, T-47D; type: cell-based; settings: T-47D (Breast), single dose 25 μM
Protocol: as §1

MCF7 = assay: Single dose cell viability assay, MCF7; type: cell-based; settings: MCF7 (Breast), single dose 25 μM
Protocol: as §1

EKVX = assay: Single dose cell viability assay, EKVX; type: cell-based; settings: EKVX (NSCLC), single dose 25 μM
Protocol: as §1

NCI-H23 = assay: Single dose cell viability assay, NCI-H23; type: cell-based; settings: NCI-H23 (NSCLC), single dose 25 μM
Protocol: as §1

NCI-H226 = assay: Single dose cell viability assay, NCI-H226; type: cell-based; settings: NCI-H226 (NSCLC), single dose 25 μM
Protocol: as §1

PLK1 PBD (367-603) = biological target: T1, PLK1 PBD (367-603) (Homo sapiens, UniProt P53350); assay: Fluorescence polarization assay, PLK1 PBD; type: binding; settings: fluorescence polarization; read-out: PLK1 PBD IC50
T1 construct: PLK1 PBD (367-603) and PLK3 PBD (335-646) proteins were obtained from BPS Biosciences Inc; purchased BPS Biosciences Inc. (San Diego, CA)
Protocol: Materials were dissolved in DMSO (10 mM) and diluted from 10 nM to 600 μM (maximum of 6% DMSO tolerance in the assay). PLK1 PBD (367-603) and PLK3 PBD (335-646) proteins were obtained from BPS Biosciences Inc. (San Diego, CA); 17 ng PLK1 and 156 ng PLK3 were used per reaction. The fluorescein-tracer phospho-peptides (MAGPMQS[pT]PLNGAKK (SEQ ID NO: 1) for PLK1, and GPLATS[pT]PKNG (SEQ ID NO: 2) for PLK3) were used at a final concentration of 10 nM. Incubation was carried out at room temperature for 45 minutes. Fluorescence was measured using a DTX 880 plate reader and Multimode Analysis software (Beckman Coulter, Brea, CA). The polarization values in millipolarization (mP) units were measured at an excitation wavelength of 488 nm and an emission wavelength of 535 nm. Each data point was performed in triplicate for every experiment, and experiments were performed at least three times. An IC50 value for each compound was calculated from linear regression analysis of the plots.

HOP-92 = assay: Single dose cell viability assay, HOP-92; type: cell-based; settings: HOP-92 (NSCLC), single dose 25 μM
Protocol: as §1

HCT-15 = assay: Single dose cell viability assay, HCT-15; type: cell-based; settings: HCT-15 (Colon), single dose 25 μM
Protocol: as §1

SNB-19 = assay: Single dose cell viability assay, SNB-19; type: cell-based; settings: SNB-19 (CNS), single dose 25 μM
Protocol: as §1

U251 = assay: Single dose cell viability assay, U251; type: cell-based; settings: U251 (CNS), single dose 25 μM
Protocol: as §1

KM12 = assay: Single dose cell viability assay, KM12; type: cell-based; settings: KM12 (Colon), single dose 25 μM
Protocol: as §1

PC-3 = assay: Single dose cell viability assay, PC-3; type: cell-based; settings: PC-3 (Prostate), single dose 25 μM
Protocol: as §1

SF-295 = assay: Single dose cell viability assay, SF-295; type: cell-based; settings: SF-295 (CNS), single dose 25 μM
Protocol: as §1

ACHN = assay: Single dose cell viability assay, ACHN; type: cell-based; settings: ACHN (Renal), single dose 25 μM
Protocol: as §1

T1 sequence (P53350 367-603): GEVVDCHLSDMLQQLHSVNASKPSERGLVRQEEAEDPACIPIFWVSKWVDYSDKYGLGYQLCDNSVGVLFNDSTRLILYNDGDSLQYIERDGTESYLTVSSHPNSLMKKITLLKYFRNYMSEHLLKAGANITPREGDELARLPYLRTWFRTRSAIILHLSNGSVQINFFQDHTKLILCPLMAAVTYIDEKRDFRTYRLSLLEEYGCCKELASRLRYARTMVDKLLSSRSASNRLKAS

SMILES: CCCCCCCCc1ccc(C(=O)Nc2ccccc2O)cc1 [compound 6421]
- Cells Remaining (%) (MOLT-4): 58.2%
- Cells Remaining (%) (RPMI-8226): 48.98%
- Cells Remaining (%) (CCRF-CEM): 37.43%
- Cells Remaining (%) (K-562): 53.71%
- Cells Remaining (%) (NCI-H522): 70.52%
- Cells Remaining (%) (SK-MEL-2): 38.46%
- Cells Remaining (%) (MDA-MB-468): 45.03%
- Cells Remaining (%) (SK-MEL-5): 70.42%
- Cells Remaining (%) (UACC-62): 69.99%
- Cells Remaining (%) (UO-31): 59.4%
- Cells Remaining (%) (HL-60(TB)): 69.66%
- Cells Remaining (%) (T-47D): 27.32%
- Cells Remaining (%) (MCF7): 35.21%
- Cells Remaining (%) (EKVX): 52.89%
- Cells Remaining (%) (NCI-H23): 62.07%
- Cells Remaining (%) (NCI-H226): 66.21%

- IC50 (PLK1 PBD (367-603)): 31.8 µM
SMILES: CCCCCCCCc1ccc(C(=O)Nc2ccc(C)cc2C(=O)O)cc1O [compound 6279]
- Cells Remaining (%) (HOP-92): 57.85%
- Cells Remaining (%) (HCT-15): 56.83%
- Cells Remaining (%) (RPMI-8226): 63.91%
- Cells Remaining (%) (CCRF-CEM): 55.59%
- Cells Remaining (%) (K-562): 49.7%
- Cells Remaining (%) (SNB-19): 43.49%
- Cells Remaining (%) (U251): 45.14%
- Cells Remaining (%) (KM12): 52.19%
- Cells Remaining (%) (PC-3): 58.63%
- Cells Remaining (%) (SF-295): 59.38%
- Cells Remaining (%) (NCI-H522): 59.89%
- Cells Remaining (%) (ACHN): 61.79%
